Measurements: US4866063A, “Diol metabolites of 7-phenyl-1,2,4-triazolo[2,3-c]pyrimidines-5-amines” (priority 1988, dated 1989)
Entries after “also recorded” stand apart in the source; their conditions may differ. Read-outs that look alike come from different tables or passages of the source.

Legend:
[1] = Cardiotoxicity of compounds I and II in rats
[2] = cited from earlier work
[3] = rat, in vivo
[4] = Metabolism of compound II in man; assay type: in vivo
[5] = Metabolism of compound II in the rat; assay type: in vivo
[6] = Water solubility compared with precursor compounds; assay type: physicochemical; details: vs compounds I and II
[7] = Bioavailability compared with precursor compounds; assay type: in vivo; details: vs compounds I and II
[8] = system: heart or adrenal gland; assay: Cardiotoxicity study of compound III in rats (gross and histologic examination, mortality); assay type: in vivo, female Charles River CD rats; details: conclusion of the study
Method: (§1) Compound III was administered by gavage at 40 mg/kg, 80 mg/kg, 160 mg/kg and 320 mg/kg to female Charles River CD rats (10/dosage) once daily for three days. One additional group of rats received vehicle for three days to serve as controls. […] Additional groups of rats (3/dosage) were sacrificed two hours after dosing on day 1, blood collected, and samples analyzed to determine plasma concentrations of compound III.

[9] = Plasma concentrations of compound III two hours after dosing on day 1; assay type: in vivo, female Charles River CD rats; details: for concentration at 2 h: rat, plasma, po, gavage, two hours after dosing on day 1
Method: as §1

Structure (SMILES) | Cardiotoxicity [1] | Glomerular filtration rate ([2]; acute, mammals) | Renal blood flow ([2]; acute, mammals) | Glomerular filtration rate ([2]; chronic oral dosing) | Renal blood flow ([2]; chronic oral dosing) | Sodium excretion ([2]; chronic oral dosing) | Myocardial lesions and associated changes [3] | Aliphatic hydroxylation (similar metabolism) [4] | Aliphatic hydroxylation (metabolism) [5] | Water solubility relative to either precursor compound [6] | Bioavailability relative to either precursor compound [7] | Cardiotoxicity [8] | Plasma concentrations relative to those expected at cardiotoxic dosages of compounds I and II ([9]; 40-320 mg/kg) | concentration at 2 h ([9]; 40 mg/kg) [ng/mL] | concentration at 2 h ([9]; 80 mg/kg) [ng/mL] | concentration at 2 h ([9]; 160 mg/kg) [ng/mL] | concentration at 2 h ([9]; 320 mg/kg) [ng/mL]
CCOCCc1c(-c2ccccc2)nc(N)n2ncnc12 [compound I, 8-(2-ethoxyethyl)-7-phenyl-1,2,4-triazolo[2,3-c]pyrimidine-5-amine] | cardiotoxicity seen | increases | increases | significant increases | significant increases | significant increases | myocardial lesions and associated changes found in rats |  |  |  |  |  |  |  |  |  | 
Nc1nc(-c2ccccc2)c(CCO)c2ncnn12 [compound II, 8-(2-hydroxyethyl)-7-phenyl 1,2,4-triazolo[2,3-c]pyrimidine-5-amine] | cardiotoxicity seen |  |  |  |  |  | myocardial lesions and associated changes found in rats | not seen in man | undergoes aliphatic hydroxylation in the rat |  |  |  |  |  |  |  | 
Nc1nc(-c2ccccc2)c(C(O)CO)c2ncnn12 (stereo not shown) [compound III, 8-(1,2-dihydroxyethyl)-7-phenyl-1,2,4-triazolo[2,3-c]pyrimidine-5-amine] |  |  |  |  |  |  |  |  |  | more water soluble | more bioavailable | does not appear to be cardiotoxic; also recorded: no incidence of cardiotoxic side effects in rats | well in excess of the concentrations that one might expect to see at cardiotoxic dosages of compounds I and II | 13800 | 19800 | 36700 | 47000
